ChEMBL document CHEMBL5154747, “Discovery of new carbonic anhydrase IX inhibitors as anticancer agents by toning the hydrophobic and hydrophilic rims of the active site to encounter the dual-tail approach” (Eur J Med Chem, 2022)

Experiments:
Format in all cases: functional
Conditions in all cases: read-out: GI
HL-60(TB) = assay: Anticancer activity against human HL-60(TB) cells assessed as cell growth inhibition at 10 uM incubated for 48 hrs by SRB assay relative to control
K562 = assay: Anticancer activity against human K562 cells assessed as cell growth inhibition at 10 uM incubated for 48 hrs by SRB assay relative to control
MOLT-4 = assay: Anticancer activity against human MOLT-4 cells assessed as cell growth inhibition at 10 uM incubated for 48 hrs by SRB assay relative to control
RPMI-8226 = assay: Anticancer activity against human RPMI-8226 cells assessed as cell growth inhibition at 10 uM incubated for 48 hrs by SRB assay relative to control
A549 = assay: Anticancer activity against human A549 cells assessed as cell growth inhibition at 10 uM incubated for 48 hrs by SRB assay relative to control
EKVX = assay: Anticancer activity against human EKVX cells assessed as cell growth inhibition at 10 uM incubated for 48 hrs by SRB assay relative to control
HOP-62 = assay: Anticancer activity against human HOP-62 cells assessed as cell growth inhibition at 10 uM incubated for 48 hrs by SRB assay relative to control
HOP-92 = assay: Anticancer activity against human HOP-92 cells assessed as cell growth inhibition at 10 uM incubated for 48 hrs by SRB assay relative to control
NCI-H23 = assay: Anticancer activity against human NCI-H23 cells assessed as cell growth inhibition at 10 uM incubated for 48 hrs by SRB assay relative to control
NCI-H322M = assay: Anticancer activity against human NCI-H322M cells assessed as cell growth inhibition at 10 uM incubated for 48 hrs by SRB assay relative to control
NCI-H522 = assay: Anticancer activity against human NCI-H522 cells assessed as cell growth inhibition at 10 uM incubated for 48 hrs by SRB assay relative to control
COLO 205 = assay: Anticancer activity against human COLO 205 cells assessed as cell growth inhibition at 10 uM incubated for 48 hrs by SRB assay relative to control
KM12 = assay: Anticancer activity against human KM12 cells assessed as cell growth inhibition at 10 uM incubated for 48 hrs by SRB assay relative to control
SW-620 = assay: Anticancer activity against human SW-620 cells assessed as cell growth inhibition at 10 uM incubated for 48 hrs by SRB assay relative to control
SF-268 = assay: Anticancer activity against human SF-268 cells assessed as cell growth inhibition at 10 uM incubated for 48 hrs by SRB assay relative to control
SF-295 = assay: Anticancer activity against human SF-295 cells assessed as cell growth inhibition at 10 uM incubated for 48 hrs by SRB assay relative to control
SNB-19 = assay: Anticancer activity against human SNB-19 cells assessed as cell growth inhibition at 10 uM incubated for 48 hrs by SRB assay relative to control
SNB-75 = assay: Anticancer activity against human SNB-75 cells assessed as cell growth inhibition at 10 uM incubated for 48 hrs by SRB assay relative to control
Malme-3M = assay: Anticancer activity against human Malme-3M cells assessed as cell growth inhibition at 10 uM incubated for 48 hrs by SRB assay relative to control
MDA-MB-435 = assay: Anticancer activity against human MDA-MB-435 cells assessed as cell growth inhibition at 10 uM incubated for 48 hrs by SRB assay relative to control
SK-MEL-2 = assay: Anticancer activity against human SK-MEL-2 cells assessed as cell growth inhibition at 10 uM incubated for 48 hrs by SRB assay relative to control
SK-MEL-28 = assay: Anticancer activity against human SK-MEL-28 cells assessed as cell growth inhibition at 10 uM incubated for 48 hrs by SRB assay relative to control
SK-MEL-5 = assay: Anticancer activity against human SK-MEL-5 cells assessed as cell growth inhibition at 10 uM incubated for 48 hrs by SRB assay relative to control
UACC-257 = assay: Anticancer activity against human UACC-257 cells assessed as cell growth inhibition at 10 uM incubated for 48 hrs by SRB assay relative to control
IGROV-1 = assay: Anticancer activity against human IGROV-1 cells assessed as cell growth inhibition at 10 uM incubated for 48 hrs by SRB assay relative to control
OVCAR-3 = assay: Anticancer activity against human OVCAR-3 cells assessed as cell growth inhibition at 10 uM incubated for 48 hrs by SRB assay relative to control
OVCAR-8 = assay: Anticancer activity against human OVCAR-8 cells assessed as cell growth inhibition at 10 uM incubated for 48 hrs by SRB assay relative to control
NCI/ADR-RES = assay: Anticancer activity against human NCI/ADR-RES cells assessed as cell growth inhibition at 10 uM incubated for 48 hrs by SRB assay relative to control
SK-OV-3 = assay: Anticancer activity against human SK-OV-3 cells assessed as cell growth inhibition at 10 uM incubated for 48 hrs by SRB assay relative to control
786-0 = assay: Anticancer activity against human 786-0 cells assessed as cell growth inhibition at 10 uM incubated for 48 hrs by SRB assay relative to control
A498 = assay: Anticancer activity against human A498 cells assessed as cell growth inhibition at 10 uM incubated for 48 hrs by SRB assay relative to control
CAKI-1 = assay: Anticancer activity against human CAKI-1 cells assessed as cell growth inhibition at 10 uM incubated for 48 hrs by SRB assay relative to control
RXF 393 = assay: Anticancer activity against human RXF 393 cells assessed as cell growth inhibition at 10 uM incubated for 48 hrs by SRB assay relative to control
MDA-MB-231 = assay: Anticancer activity against human MDA-MB-231 cells assessed as cell growth inhibition at 10 uM incubated for 48 hrs by SRB assay relative to control
Hs-578T = assay: Anticancer activity against human Hs-578T cells assessed as cell growth inhibition at 10 uM incubated for 48 hrs by SRB assay relative to control
BT-549 = assay: Anticancer activity against human BT-549 cells assessed as cell growth inhibition at 10 uM incubated for 48 hrs by SRB assay relative to control
T47D = assay: Anticancer activity against human T47D cells assessed as cell growth inhibition at 10 uM incubated for 48 hrs by SRB assay relative to control
MDA-MB-468 = assay: Anticancer activity against human MDA-MB-468 cells assessed as cell growth inhibition at 10 uM incubated for 48 hrs by SRB assay relative to control
OVCAR-4 = assay: Anticancer activity against human OVCAR-4 cells assessed as cell growth inhibition at 10 uM incubated for 48 hrs by SRB assay relative to control

| SMILES | inhibition of growth at 10 µM (HL-60(TB)) [%] | inhibition of growth at 10 µM (K562) [%] | inhibition of growth at 10 µM (MOLT-4) [%] | inhibition of growth at 10 µM (RPMI-8226) [%] | inhibition of growth at 10 µM (A549) [%] | inhibition of growth at 10 µM (EKVX) [%] | inhibition of growth at 10 µM (HOP-62) [%] | inhibition of growth at 10 µM (HOP-92) [%] | inhibition of growth at 10 µM (NCI-H23) [%] | inhibition of growth at 10 µM (NCI-H322M) [%] | inhibition of growth at 10 µM (NCI-H522) [%] | inhibition of growth at 10 µM (COLO 205) [%] | inhibition of growth at 10 µM (KM12) [%] | inhibition of growth at 10 µM (SW-620) [%] | inhibition of growth at 10 µM (SF-268) [%] | inhibition of growth at 10 µM (SF-295) [%] | inhibition of growth at 10 µM (SNB-19) [%] | inhibition of growth at 10 µM (SNB-75) [%] | inhibition of growth at 10 µM (Malme-3M) [%] | inhibition of growth at 10 µM (MDA-MB-435) [%] | also measured |
| --- | --- | --- | --- | --- | --- | --- | --- | --- | --- | --- | --- | --- | --- | --- | --- | --- | --- | --- | --- | --- | --- |
| NS(=O)(=O)c1ccc(Nc2nc(N/N=C/c3ccccc3)nc(Nc3ccccc3)n2)cc1 | 40 | 40 | 58 | 41 | 28 | 29 | < 10 | 27 | 13 | 27 | < 10 | 14 | 26 | < 10 | 19 | 27 | < 10 | < 10 | 22 | 26 | inhibition of growth at 10 µM (SK-MEL-2): 10%; inhibition of growth at 10 µM (SK-MEL-28): 27%; inhibition of growth at 10 µM (SK-MEL-5): 35%; inhibition of growth at 10 µM (UACC-257): < 10%; inhibition of growth at 10 µM (IGROV-1): 38%; inhibition of growth at 10 µM (OVCAR-3): 29%; inhibition of growth at 10 µM (OVCAR-8): 20%; inhibition of growth at 10 µM (NCI/ADR-RES): < 10%; inhibition of growth at 10 µM (SK-OV-3): < 10%; inhibition of growth at 10 µM (786-0): 33%; inhibition of growth at 10 µM (A498): 42%; inhibition of growth at 10 µM (CAKI-1): 27%; inhibition of growth at 10 µM (RXF 393): 87%; inhibition of growth at 10 µM (MDA-MB-231): 16%; inhibition of growth at 10 µM (Hs-578T): 43%; inhibition of growth at 10 µM (BT-549): < 10%; inhibition of growth at 10 µM (T47D): 37%; inhibition of growth at 10 µM (MDA-MB-468): 19%; inhibition of growth at 10 µM (OVCAR-4): 15% |
| CN(C)c1ccc(/C=N/Nc2nc(Nc3ccccc3)nc(Nc3ccc(S(N)(=O)=O)cc3)n2)cc1 | 29 | 39 | 44 | 52 | 26 | < 10 | 12 | < 10 | 13 | 15 | 20 | < 10 | 33 | 17 | 10 | 53 | 16 | 12 | 25 | 11 | inhibition of growth at 10 µM (SK-MEL-2): 18%; inhibition of growth at 10 µM (SK-MEL-28): 10%; inhibition of growth at 10 µM (SK-MEL-5): 14%; inhibition of growth at 10 µM (UACC-257): < 10%; inhibition of growth at 10 µM (IGROV-1): 28%; inhibition of growth at 10 µM (OVCAR-3): 14%; inhibition of growth at 10 µM (OVCAR-8): 31%; inhibition of growth at 10 µM (NCI/ADR-RES): < 10%; inhibition of growth at 10 µM (SK-OV-3): < 10%; inhibition of growth at 10 µM (786-0): 31%; inhibition of growth at 10 µM (A498): 14%; inhibition of growth at 10 µM (CAKI-1): < 10%; inhibition of growth at 10 µM (RXF 393): 35%; inhibition of growth at 10 µM (MDA-MB-231): 13%; inhibition of growth at 10 µM (Hs-578T): 37%; inhibition of growth at 10 µM (BT-549): < 10%; inhibition of growth at 10 µM (T47D): 52%; inhibition of growth at 10 µM (MDA-MB-468): 14%; inhibition of growth at 10 µM (OVCAR-4): < 10% |
| NS(=O)(=O)c1ccc(Nc2nc(N/N=C/CCc3ccccc3)nc(Nc3ccccc3)n2)cc1 | < 10 | < 10 | < 10 | < 10 | < 10 | < 10 | < 10 | < 10 | < 10 | < 10 | 12 | < 10 | < 10 | < 10 | < 10 | < 10 | < 10 | < 10 | < 10 | < 10 | inhibition of growth at 10 µM (SK-MEL-2): < 10%; inhibition of growth at 10 µM (SK-MEL-28): < 10%; inhibition of growth at 10 µM (SK-MEL-5): < 10%; inhibition of growth at 10 µM (UACC-257): < 10%; inhibition of growth at 10 µM (IGROV-1): < 10%; inhibition of growth at 10 µM (OVCAR-3): < 10%; inhibition of growth at 10 µM (OVCAR-8): < 10%; inhibition of growth at 10 µM (NCI/ADR-RES): < 10%; inhibition of growth at 10 µM (SK-OV-3): < 10%; inhibition of growth at 10 µM (786-0): < 10%; inhibition of growth at 10 µM (A498): < 10%; inhibition of growth at 10 µM (CAKI-1): < 10%; inhibition of growth at 10 µM (RXF 393): < 10%; inhibition of growth at 10 µM (MDA-MB-231): < 10%; inhibition of growth at 10 µM (Hs-578T): < 10%; inhibition of growth at 10 µM (BT-549): < 10%; inhibition of growth at 10 µM (T47D): < 10%; inhibition of growth at 10 µM (MDA-MB-468): 11%; inhibition of growth at 10 µM (OVCAR-4): < 10% |
| NS(=O)(=O)c1ccc(Nc2nc(N/N=C/c3cccc4ccccc34)nc(Nc3ccccc3)n2)cc1 | 28 | 41 | 84 | 51 | 26 | 20 | 11 | < 10 | 10 | < 10 | 24 | 18 | 27 | < 10 | 12 | 29 | < 10 | < 10 | 19 | 41 | inhibition of growth at 10 µM (SK-MEL-2): 17%; inhibition of growth at 10 µM (SK-MEL-28): 20%; inhibition of growth at 10 µM (SK-MEL-5): 29%; inhibition of growth at 10 µM (UACC-257): < 10%; inhibition of growth at 10 µM (IGROV-1): 26%; inhibition of growth at 10 µM (OVCAR-3): 23%; inhibition of growth at 10 µM (OVCAR-8): 40%; inhibition of growth at 10 µM (NCI/ADR-RES): < 10%; inhibition of growth at 10 µM (SK-OV-3): < 10%; inhibition of growth at 10 µM (786-0): 56%; inhibition of growth at 10 µM (A498): < 10%; inhibition of growth at 10 µM (CAKI-1): 23%; inhibition of growth at 10 µM (RXF 393): 64%; inhibition of growth at 10 µM (MDA-MB-231): < 10%; inhibition of growth at 10 µM (Hs-578T): 11%; inhibition of growth at 10 µM (BT-549): < 10%; inhibition of growth at 10 µM (T47D): 55%; inhibition of growth at 10 µM (MDA-MB-468): < 10%; inhibition of growth at 10 µM (OVCAR-4): 16% |
